Assay results as given in patent US11439615B2, “Lipoxin and lipoxin analogue mediated neuroprotection and treatments” (University Health Network, priority 2017, dated 2022).

Columns and labels:
primary RGCs = assay: Primary RGCs under serum deprivation, cell and neurite survival (β3-tubulin); type: cell-based, rat; settings: 1 μM, 48 hours of serum and supplement deprivation
Experimental: For astrocytes: Primary mature retinal astrocytes (RA) were isolated and cultured as previously described (46). Briefly, eyes were dissected out of adult Wistar rats and placed in ice-cold MEM-H17 media. Isolated retinas were digested by shaking in MEM-H17 containing papain and DNAse, followed by trituration to disperse cell-aggregates. When cultures reached confluence, the cells were placed on a rotating shaker for 6-8 hours to remove microglia and then re-plated. A glial-specific expression profile was confirmed by probing the cultures with a panel of glia microglia and neuronal markers (44). For RGCs: RGCs were purified using magnetic MicroBeads (Miltenyi Biotec, Germany) according to the manufacturer's protocol. Briefly; retinal cell suspensions were prepared from 8-10 day old rats and incubated with CD90.1 microbeads, and then carefully washed with DPBS/BSA buffer. The suspension was centrifuged at 130×g and the supernatant aspirated. Cells were then incubated with biotinylated depletion antibodies against microglia and endothelial cells. The labeled cell suspension was then incubated with magnetic Anti-Biotin MACSiBead™ Particles, and placed in a weak magnetic field. The pre-enriched cell suspension was centrifuged, and resuspended in fresh DPBS/BSA buffer and applied to a MACs MS separation column in the presence of a strong magnetic field to select for CD90.1-bound RGCs. To increase RGC purity, the eluted fraction was enriched over a second column. Purified RGCs were eluted and plated on poly-D-lysine coated dishes. The cells were cultured in Neurobasal-A media (Gibco) supplemented with 2% calf serum, B27, L-glutamine, BDNF, CNTF, forskolin and pen/strep.
To further confirm direct lipoxin activity in primary neurons, the ability of LXA4 or LXB4 to protect primary RGCs was tested. RGCs were isolated by immunopanning according to established methods. The cells were subjected to serum deprivation (SD), and then stained for β3-tubulin to quantify cell and neurite survival. Under normal serum, the RGCs extended an extensive network of neurites. […]

HT22 cells = assay: Mitosox mitochondrial oxidative stress in glutamate challenged HT22 cells; type: cell-based; settings: 1 μM, HT22 cells challenged with glutamate, vs vehicle
Experimental: HT22 cells challenged with glutamate were then assayed for mitochondrial oxidative stress using the Mitosox reagent, in combination with 1 μM LXA4, LXB4, and the LXA4 receptor ALX/FPR2 agonists Quinc-1 and Mmk-1.

[1] = system: retinal ganglion cell neurons (RGCs); assay: Mouse acute retinal insult model (intravitreal kainic acid), RGC survival / GCL apoptosis; type: in vivo; settings: 2 μl of 10 μM intravitreally one hour prior to retinal KA insult; RBPMS counts
Experimental: Male C57BLL/6 mice, 4-6 weeks of age, were purchased from Taconic or Jackson labs. All experimental protocols were approved by the UHN and UC Berkeley ACUC in accordance with applicable regulations. Mice were anesthetized by intraperitoneal injection of ketamine/xylazine. Intravitreal injections with 10 mM kainic acid (KA) were performed as previously described (45). Briefly, a 30-gauge needle was inserted tangentially into the vitreous and replaced with a Hamilton syringe to inject a volume of 2 μL, followed by application of ophthalmic antibiotic ointment (BNP, Vetoquinol). In some experiments, 10× concentrated ACM or test compounds were injected intravitreally one hour prior to the KA injection in concentrations as follows: LXA4 and LXB4 at 10 μM, Zileuton at 2 μg/ul, and WRW4 at 15 μM, all dissolved in PBS. Mice were euthanized by CO2 asphyxiation 18 hours post KA treatment and the eyes fixed in 4% paraformaldehyde. In all experiments n refers to the number of animals tested.
To quantify the extent of apoptosis, a well-established method was used to count the number of TUNEL-positive nuclei in the ganglion cell layer (GCL) and expressed it as a fraction of the total GCL nuclei (50-54). TUNEL labeling was performed according to the manufacturer's instructions (DeadEnd; Promega). Briefly, cryostat sections were fixed with 4% PFA for 5 minutes and washed in PBS. Equilibration buffer was added, and rTdT reaction mix was applied to each slide and incubated at 37° C. for 60 min. Following the rTdT reaction, slides were washed in 2×SSC and PBS and finally mounted with glycerol-based medium. For RGC survival, RBPMS-positive cells in the GCL were counted and expressed as a fraction of GCL nuclei. For each eye, at least five central retinal sections were analyzed at the level of the optic nerve stretching to each ora serrata, and the results averaged, as previously described (42).
In order to test the influence of the transplanted cells on inner retinal pathology, RA's were transplanted as above. After 16 days retinas were challenged with an acute metabolic injury by injection of kainic acid (KA). […]
Retinal astrocyte neuroprotection is mediated through secreted factors that include a small molecule component enriched in LXA4 and LXB4. […] This time, survival of RGCs was specifically assessed by probing for the selective marker RBPMS, along with complementary TUNEL staining, and quantified as previously. As expected, extensive RGC loss was detected in KA challenged eyes injected with cell-free control media incubated under the same conditions as ACM (FIG. 2A). […]

Compound | neuron survival following serum deprivation (primary RGCs) | mitochondrial oxidative stress (Mitosox) (HT22 cells) | increase of RGC survival compared to vehicle control [1] | neurite degeneration following serum deprivation (intact neurite ratio) (primary RGCs)
CCCCC[C@H](O)/C=C/C=C\C=C\C=C\[C@@H](O)[C@@H](O)CCCC(=O)O [LXA4, 5S,6R,15S-trihydroxy-7E,9E,11Z,13E-eicosatetraenoic acid] | significant rescue | reduce mitochondrial oxidative stress | 37% | –
CCCCC[C@H](O)[C@H](O)/C=C/C=C/C=C\C=C\[C@@H](O)CCCC(=O)O [LXB4, 5S,14R,15S-trihydroxy-6E,8Z,10E,12E-eicosatetraenoic acid] | significant rescue | reduce mitochondrial oxidative stress | 50% | strongly rescued
